Data as given in patent US20260191845A1, “PYRIDINE-2-THIOL 1-OXIDE DERIVATIVES AND THEIR USE FOR TREATMENT OF MAMMALIAN INFECTIONS CAUSED BY MYCOBACTERIUM OR FUNGI” (priority 2022, published 2026).
Values after ≈ are worked out from the molar mass of the structure shown. Read-outs that look alike come from different tables or passages of the source.

Tests used:
[1] = system: Sporobolomyces salmonicolor; assay: Antifungal agar well diffusion assay; conditions: 20 μL water solution in 4 mm well
Protocol: (§1) The well diffusion test was performed using Casitone agar. The inoculum used was prepared using the Candida or Aspergillus strains from a 24-hour culture on Sabouraud dextrose agar, a suspension was made in a sterile saline solution (0.85%). The turbidity of the suspension was adjusted with a spectrophotometer at 530 nm to obtain a final concentration to match that of a 0.5 McFarland standard (0.5-2.5×10^3). 20 mL of Bacto-casitone were melted, cooled to 55° C. and then inoculated with 1 mL of the organism suspension. The inoculated agar was poured into the assay plate (9 cm in diameter) and allowed to cool down on a leveled surface.

[2] = system: Candida albicans H8; assay: Antifungal agar well diffusion assay; conditions: 20 μL water solution in 4 mm well
Protocol: as §1

[3] = system: Penicillium notatum; assay: Antifungal agar well diffusion assay; conditions: 20 μL water solution in 4 mm well
Protocol: as §1

[4] = system: Aspergillus niger; assay: Antifungal agar well diffusion assay; conditions: 20 μL water solution in 4 mm well
Protocol: as §1

[5] = system: Mycobacterium abscessus ATCC 19977; assay: REMA MIC90 against M. abscessus ATCC 19977; assay type: cell-based; conditions: Mycobacteroides abscessus
Protocol: Briefly, serial 2-fold dilutions of drug are prepared in 96-well microtiter plates (Fluoronunc, Thermo Fisher, Waltham, MA, USA) in 100 μL of Middlebrook 7H9 medium (Difco), supplemented with 10% OADC without addition of Tween 80. Then, M. abscessus log-phase cultures were diluted (OD600=0.02) and added in the 96-well microtiter plate. Growth controls containing no compound and sterile controls without inoculum are also included. […] After 1 day of incubation at 37° C., 10 μL of resazurin (0.025% w/v) is added to each well, and bacterial viability is assessed after a further 24 h of incubation using a Fluoroskan™ Microplate Fluorometer (Thermo Fisher Scientific, Waltham, MA, USA; excitation=544 nm, emission=590 nm). […] Results are expressed as the average of at least three independent replicates and presented on the following Table 1.

[6] = ATCC19977, MIC90, REMA, Table 1, read-out: MIC in M. abscessus ATCC 19977
[7] = ATCC19977, read-out: MIC in M. abscessus ATCC 19977

SMILES	Inhibition Zone of Test Microorganism [1]	Inhibition Zone of Test Microorganism [2]	Inhibition Zone of Test Microorganism [3]	Inhibition Zone of Test Microorganism [4]	MIC [5, 6]	MIC [5, 7]
C[C@@H]1[C@H](O)[C@@H](C)/C=C/C=C/C=C/C=C/C=C/C=C/C=C/[C@H](O[C@@H]2O[C@H](C)[C@@H](O)[C@H](N)[C@@H]2O)C[C@@H]2O[C@](O)(C[C@@H](O)C[C@@H](O)[C@H](O)CC[C@@H](O)C[C@@H](O)CC(=O)O[C@H]1C)C[C@H](O)[C@H]2C(=O)O [Amph. B, reference compound]	15 mm	22 mm	12 mm	17 mm		
CCOC(=O)c1ccc(S)[n+]([O-])c1 [Compound 1, Ethyl 6-mercaptonicotinate 1-oxide]	43 mm	56 mm	17 mm	26 mm	125 µg/mL (≈ 627 µM)	
COC(=O)c1ccc(S)[n+]([O-])c1 [Compound 3, Methyl 6-mercaptonicotinate 1-oxide]					250 µg/mL (≈ 1350 µM)	
COC(=O)c1ccc([S-])[n+]([O-])c1.[Na+] [Compound 4, Sodium 5-(methoxycarbonyl)pyridine-2-thiolate 1-oxide]					250 µg/mL	
[Na+].[O-][n+]1cc(C(F)(F)F)ccc1[S-] [Compound 5, Sodium 5-(trifluoromethyl)pyridine-2-thiolate 1-oxide]	40 mm	49 mm	15 mm	22 mm		250 µg/mL
NC(=O)c1ccc([S-])[n+]([O-])c1.[K+] [Compound 6, Potassium 5-(aminocarbonyl)pyridine-2-thiolate 1-oxide]						500 µg/mL
O=C(c1ccc([S-])[n+]([O-])c1)N1CCCCC1.[K+] [Compound 7, Potassium 5-(piperidin-1-ylcarbonyl)pyridine-2-thiolate 1-oxide]	43 mm	52 mm	15 mm	23 mm		1000 µg/mL
CN(C)C(=O)c1ccc(S)[n+]([O-])c1 [Compound 8, 6-Mercapto-N,N-dimethylnicotinamide 1-oxide]					500 µg/mL (≈ 2520 µM)	
CN(C)C(=O)c1ccc([S-])[n+]([O-])c1.[Na+] [Compound 9, Sodium 5-[(dimethylamino)carbonyl]pyridine-2-thiolate 1-oxide]					500 µg/mL	
CC(C)OC(=O)c1ccc([S-])[n+]([O-])c1.[Na+] [Compound 10, Sodium 5-(isopropoxycarbonyl)pyridine-2-thiolate 1-oxide]					500 µg/mL	
